Measured values as given in ChEMBL document CHEMBL3734705, “Synthesis and in vitro cytotoxicity of novel C-12 substituted-14-deoxy-andrographolide derivatives as potent anti-cancer agents” (2015).

Assays:
NCI-H460 [1] = experiment: Cytotoxicity against human NCI-H460 cells assessed as growth level at 10 uM after 48 hrs by SRB assay; assay type: functional
A498 = experiment: Cytotoxicity against human A498 cells assessed as growth level at 10 uM after 48 hrs by SRB assay; assay type: functional
MDA-MB-231 = experiment: Cytotoxicity against human MDA-MB-231 cells assessed as growth level at 10 uM after 48 hrs by SRB assay; assay type: functional
[2] = Cytotoxicity against human MOLT4 cells assessed as growth inhibition at 10 uM after 48 hrs by SRB assay; assay type: functional; details: MOLT-4, 48 h, read-out: GI
NCI-H23 = experiment: Cytotoxicity against human NCI-H23 cells assessed as growth level at 10 uM after 48 hrs by SRB assay; assay type: functional
786-0 = experiment: Cytotoxicity against human 786-0 cells assessed as growth level at 10 uM after 48 hrs by SRB assay; assay type: functional
SK-MEL-5 [3] = experiment: Cytotoxicity against human SK-MEL-5 cells assessed as growth inhibition at 10 uM after 48 hrs by SRB assay; assay type: functional; details: SK-MEL-5, 48 h, read-out: GI
ACHN = experiment: Cytotoxicity against human ACHN cells assessed as growth level at 10 uM after 48 hrs by SRB assay; assay type: functional
[4] = Cytotoxicity against human OVCAR4 cells assessed as growth inhibition at 10 uM after 48 hrs by SRB assay; assay type: functional; details: OVCAR-4, 48 h, read-out: GI
[5] = Cytotoxicity against human PC3 cells assessed as growth level at 10 uM after 48 hrs by SRB assay; assay type: functional, PC-3
U-251 = experiment: Cytotoxicity against human U251 cells assessed as growth inhibition at 10 uM after 48 hrs by SRB assay; assay type: functional; details: U-251, 48 h, read-out: GI
[6] = Cytotoxicity against human Hs578T cells assessed as growth level at 10 uM after 48 hrs by SRB assay; assay type: functional, Hs-578T
[7] = Cytotoxicity against human IGROV1 cells assessed as growth level at 10 uM after 48 hrs by SRB assay; assay type: functional, IGROV-1
[8] = Cytotoxicity against human OVCAR8 cells assessed as growth level at 10 uM after 48 hrs by SRB assay; assay type: functional, OVCAR-8
[9] = Cytotoxicity against human TK10 cells assessed as growth inhibition at 10 uM after 48 hrs by SRB assay; assay type: functional; details: TK-10, 48 h, read-out: GI
[10] = Cytotoxicity against human UO31 cells assessed as growth level at 10 uM after 48 hrs by SRB assay; assay type: functional, UO-31
[11] = Cytotoxicity against human COLO205 cells assessed as growth inhibition at 10 uM after 48 hrs by SRB assay; assay type: functional; details: COLO 205, 48 h, read-out: GI
Malme-3M = experiment: Cytotoxicity against human MALME-3M cells assessed as growth inhibition at 10 uM after 48 hrs by SRB assay; assay type: functional; details: read-out: GI
[12] = Cytotoxicity against human SW620 cells assessed as growth inhibition at 10 uM after 48 hrs by SRB assay; assay type: functional; details: SW-620, 48 h, read-out: GI
[13] = Cytotoxicity against human MOLT4 cells assessed as growth level at 10 uM after 48 hrs by SRB assay; assay type: functional, MOLT-4
[14] = Cytotoxicity against human OVCAR8 cells assessed as growth inhibition at 10 uM after 48 hrs by SRB assay; assay type: functional; details: OVCAR-8, 48 h, read-out: GI
[15] = Cytotoxicity against human UACC257 cells assessed as growth level at 10 uM after 48 hrs by SRB assay; assay type: functional, UACC-257
KM12 = experiment: Cytotoxicity against human KM12 cells assessed as growth level at 10 uM after 48 hrs by SRB assay; assay type: functional
[16] = Cytotoxicity against human IGROV1 cells assessed as growth inhibition at 10 uM after 48 hrs by SRB assay; assay type: functional; details: IGROV-1, 48 h, read-out: GI
[17] = Cytotoxicity against human Hs578T cells assessed as growth inhibition at 10 uM after 48 hrs by SRB assay; assay type: functional; details: Hs-578T, read-out: GI
[18] = Cytotoxicity against human TK10 cells assessed as growth level at 10 uM after 48 hrs by SRB assay; assay type: functional, TK-10
SR = experiment: Cytotoxicity against human SR cells assessed as growth inhibition at 10 uM after 48 hrs by SRB assay; assay type: functional; details: read-out: GI
M14 = experiment: Cytotoxicity against human M14 cells assessed as growth inhibition at 10 uM after 48 hrs by SRB assay; assay type: functional; details: M14, 48 h, read-out: GI
NCI-H226 = experiment: Cytotoxicity against human NCI-H226 cells assessed as growth level at 10 uM after 48 hrs by SRB assay; assay type: functional
SK-MEL-5 [19] = experiment: Cytotoxicity against human SK-MEL-5 cells assessed as growth level at 10 uM after 48 hrs by SRB assay; assay type: functional
[20] = Cytotoxicity against human OVCAR3 cells assessed as growth level at 10 uM after 48 hrs by SRB assay; assay type: functional, OVCAR-3
[21] = Cytotoxicity against human OVCAR5 cells assessed as growth level at 10 uM after 48 hrs by SRB assay; assay type: functional, OVCAR-5
[22] = Cytotoxicity against human SNB75 cells assessed as growth inhibition at 10 uM after 48 hrs by SRB assay; assay type: functional; details: SNB-75, 48 h, read-out: GI
A549 = experiment: Cytotoxicity against human A549 cells assessed as growth inhibition at 10 uM after 48 hrs by SRB assay; assay type: functional; details: A549, 48 h, read-out: GI
CCRF-CEM = experiment: Cytotoxicity against human CCRF-CEM cells assessed as growth level at 10 uM after 48 hrs by SRB assay; assay type: functional
[23] = Cytotoxicity against human COLO205 cells assessed as growth level at 10 uM after 48 hrs by SRB assay; assay type: functional, COLO 205
NCI-H460 [24] = experiment: Cytotoxicity against human NCI-H460 cells assessed as growth inhibition at 10 uM after 48 hrs by SRB assay; assay type: functional; details: NCI-H460, 48 h, read-out: GI
NCI-H522 = experiment: Cytotoxicity against human NCI-H522 cells assessed as growth inhibition at 10 uM after 48 hrs by SRB assay; assay type: functional; details: NCI-H522, 48 h, read-out: GI
MCF7 = experiment: Cytotoxicity against human MCF7 cells assessed as growth inhibition at 10 uM after 48 hrs by SRB assay; assay type: functional; details: MCF7, 48 h, read-out: GI
K562 = experiment: Cytotoxicity against human K562 cells assessed as growth level at 10 uM after 48 hrs by SRB assay; assay type: functional
[25] = Cytotoxicity against human HL-60(TB) cells assessed as growth inhibition at 10 uM after 48 hrs by SRB assay; assay type: functional; details: HL-60, 48 h, read-out: GI
[26] = Cytotoxicity against human HOP62 cells assessed as growth level at 10 uM after 48 hrs by SRB assay; assay type: functional, HOP-62
SN12C = experiment: Cytotoxicity against human SN12C cells assessed as growth level at 10 uM after 48 hrs by SRB assay; assay type: functional
[27] = Cytotoxicity against human SW620 cells assessed as growth level at 10 uM after 48 hrs by SRB assay; assay type: functional, SW-620

With `C=C1CC[C@@H]2[C@](C)(COC(C)=O)[C@H](OC(C)=O)CC[C@@]2(C)[C@@H]1CC(NCc1ccc(F)cc1)C1=CCOC1=O` (mixture of isomers) the Activity (NCI-H460 [1]) was 55.22%, the Activity (A498) was 51.71% and the Activity (MDA-MB-231) was 60.86%. The inhibition of growth at 10 µM [2] was 0.37%, the Activity (NCI-H23) was 57.85% and the Activity (786-0) was 86.82%. For the same compound, the inhibition of growth at 10 µM (SK-MEL-5 [3]) was 88.2%, the Activity (ACHN) was 50.93% and the inhibition of growth at 10 µM [4] was 69.1%. The Activity [5] was 20.82%, the inhibition of growth at 10 µM (U-251) was 52% and the Activity [6] was 72.47%. It also gave an Activity [7] of 48.35%, an Activity [8] of 18.62% and an inhibition of growth at 10 µM [9] of 33.4%. The Activity [10] was 31.26%, the inhibition of growth at 10 µM [11] was 57.9% and the inhibition of growth at 10 µM (Malme-3M) was 34.9%. For the same compound, the inhibition of growth at 10 µM [12] was 68%, the Activity [13] was -0.37% and the inhibition of growth at 10 µM [14] was 81.4%. For the same compound, the Activity [15] was 45.84%, the Activity (KM12) was 46.48% and the inhibition of growth at 10 µM [16] was 51.6%. For the same compound, the inhibition of growth at 10 µM [17] was 27.5%, the Activity [18] was 66.64% and the inhibition of growth at 10 µM (SR) was 92.3%. The inhibition of growth at 10 µM (M14) was 62.7%, the Activity (NCI-H226) was 40.13% and the Activity (SK-MEL-5 [19]) was 11.81%. It also gave an Activity [20] of 23.7%, an Activity [21] of 99% and an inhibition of growth at 10 µM [22] of 41.9%. The inhibition of growth at 10 µM (A549) was 42.1%, the Activity (CCRF-CEM) was 9.18% and the Activity [23] was 42.15%. It also gave an inhibition of growth at 10 µM (NCI-H460 [24]) of 44.8%, an inhibition of growth at 10 µM (NCI-H522) of 79.1% and an inhibition of growth at 10 µM (MCF7) of 83.4%. For the same compound, the Activity (K562) was 18.84%, the inhibition of growth at 10 µM [25] was 9.52% and the Activity [26] was 78.73%. It also gave an Activity (SN12C) of 46.23% and an Activity [27] of 32.04%.
